The test system of one test is iNOS. Kind of test: iNOS expression measured as nitrite production induced by immune complexes in rat peritoneal macrophages. The test is classed as cell-based. Conditions: Peritoneal macrophage, 100 μg/ml IgG/ovalbumin, nitrite after 24 hours, mean ± SEM, read-out: IC50, production of nitrite (NO) induced by immune complexes. The protocol:
Rat peritoneal cells were obtained and resuspended in DMEM culture medium in the absence of serum and supplemented with antibiotics. Macrophages were isolated by their ability to adhere to culture plates following incubation for 2 hours at 37° C. Non-adherent cells were removed and it was then checked that more than 95% of the adherent cells were macrophages, as assessed by their ability to engulf zymosan particles and nonspecific esterase staining. Culture plates were kept at 37° C. under a 5% CO2 atmosphere, and the peritoneal macrophages adhered to the plates were incubated with 100 μg/ml IgG/ovalbumin immune complexes in the presence or absence (Control) of triflusal or HTB (0.1-20 mM, both). Drugs were added 10 minutes before the addition of IgG/ovalbumin and the production of NO was determined as the nitrite present after 24 hours.
iNOS expression was indirectly measured as the production of NO. NO released from macrophage cultures was determined indirectly by the accumulation of nitrites. […] 50 μl naphthylenediamine (1 mM final concentration) were added and after 15 minutes of incubation the absorbance of the sample was measured at 548 nm and was compared with a NaNO2 standard. The production of NO was expressed as nmol NO2^−/mg protein.

Another test has as its system COX-2. The test can be described thus: COX-2 expression induced by LPS in human PBMC (immunoblot). The test is classed as cell-based. The following applies: LPS 10 μg/ml, 19 hours, 0.1-5 mM. As for the experimental part: Mononuclear cells (PBMC) were obtained from blood of healthy donors from the Hospital de Sant Pau, (Barcelona) who had not taken any antiinflammatory drug during a period of not less than 2 weeks before blood extraction. Starting from a volume of about 80 ml of heparinized human blood (10 U/ml), this was diluted (1:1) with PBS (pH 7.4; Dulbecco) without calcium, magnesium nor sodium bicarbonate. 15 ml of Ficoll solution (d=1.077 at 20° C.; Biochrom KG) were placed in 50-ml Falcon tubes. To this solution a volume of about 25 ml per tube of the blood previously diluted with PBS was carefully added and the tubes were then centrifuged at 1,200 g for 20 minutes. Mononudear cells concentrate on a whitish interphase between the plasma and the Ficoll solution. This interphase was collected with a Pasteur pipette and was diluted 1:1 with PBS. It was then centrifuged at 300 g, 10 min. The resulting pellet was resuspended in 50 ml PBS and was again centrifuged at 200 g for 10 min in order to remove platelet contamination. Finally, the resulting pellet was resuspended in 20 ml RPMI-1640 culture medium (GibcoBRL) supplemented with 10% fetal calf serum.
Cells were diluted at a concentration of 2.5 million/ml with RPMI medium containing 10% fetal calf serum and were incubated (37° C., 5% CO2) 19 hours in 6-well plates (2 ml/well, 5 million PBMC). […]
A general note: Immunoblotting shows a protein as a band on a membrane.

As to `CC(=O)Oc1cc(C(F)(F)F)ccc1C(=O)O` [triflusal, 2-Acetyloxy-4-trifluoromethylbenzoic acid, reference compound], in the test on iNOS, the IC50 – broadly, the concentration at which inhibition is half-maximal – was determined as 1130 ± 120 µM. The “inhibition of COX-2 expression” value with COX-2 is reported as “concentration-dependently inhibit”.

With `O=C(O)c1ccc(C(F)(F)F)cc1O` [HTB, 2-hydroxy-4-trifluoromethylbenzoic acid], the IC50 in the test with iNOS came to 1840 ± 340 µM. Further, in the test on COX-2, the “inhibition of COX-2 expression” value is on record as “concentration-dependently inhibit”.

The record behind these values is patent US6509377B1, “Use of a 2-hydroxy-4-trifluoromethylbenzoic acid derivatives as inhibitors of the activation of the nuclear transcription factor NF-κB” (J. Uriach & Cia, S.A., priority 1999, dated 2003).
